Results reported in patent US20200276181A1, “THIENOISOQUINOLINES AND THEIR DERIVATIVES FOR TARGETING TUBULIN, CH-TOG, AURORA A KINASE, TPX2, CDK5RAP2 AND/OR ASPM” (VALORBEC, SEC, priority 2017, published 2020).

Key:
[1] = tested on: HFF1 cells; experiment: Spindle morphology, fixed cells stained for tubulin and DAPI; type: cell-based; settings: 300 nM
Procedure: (§1) FIG. 1A) is a line graph showing changes in the percentage of viable HFF-1, HeLa, A549 and HCT 116 cells after treatment with a range of C75 concentrations for 3 population doubling times (N=3). […] There were more rounded mitotic cells after C75 treatment in comparison to the control. FIG. 1C) is a line graph showing the percentage of HeLa and HFF1 cells in mitosis after treatment with various concentrations of C75 for 8 hours. The bars indicate standard deviation. FIG. 1D) is a series of images showing cells that were fixed and co-stained for tubulin (microtubules) and DAPI (DNA). Treatment of HeLa cells with 300 nM C75 caused the mitotic spindles to be disorganized, while they were not affected in HFF1 cells. […] The scale bar for the cells is 10 μm. […] FIG. 1F) is a cartoon schematic showing the key features of a metaphase cell.
(§2) The images in FIG. 1B) show fields of view of HeLa cells treated with (dimethyl sulfoxide) DMSO or 500 nM of C75. […] Higher concentrations of C75 caused spindle phenotypes in HFF1 cells, but they were quite different in comparison to HeLa cells (FIG. 1D).

[2] = tested on: HCT116, HeLa and A549 cells; experiment: Cell cycle phases by flow cytometry; type: cell-based; settings: 300 nM or 400 nM for 8 hours
Source text: (§3) For each condition, 20,000 cells were counted per replicate (N=3). Line graphs (right) were made to better illustrate the relative changes in the cell cycle phases for the different treatments. Bars show standard deviation. The asterisks indicate the first statistically significant change in the G0/G1 and G2/M populations determined by a two-way ANOVA with a post-hoc Tukey's multiple comparisons test using 95% confidence intervals. FIG. 2B) is a line graph showing the percentage of HCT116 (p53−/−) cells, A549 cells, HeLa cells and H1299 cells in mitosis after treatment with various concentrations of C75 for one population doubling time. All of the cell lines show an increase in the proportion of mitotic cells after treatment with 200 nM C75. The bars indicate standard deviation. […]
(§4) C75 was also tested for efficacy in different cancer cell lines. […] To further assess the role of C75 in disrupting spindles, HeLa cells were treated with 300 nM C75 for 4 hours and the spindle phenotypes were analyzed in more detail (FIG. 2E). […] To assess the affect of C75 on centrosomes, HeLa cells were treated with C75 or nocodazole (a drug that causes microtubule depolymerization as a control) for a short period of time (5 minutes), then the drugs were removed and the cells were analyzed for spindle phenotypes (schematic in FIG. 2G). […]

[3] = tested on: HeLa cells in metaphase; experiment: Short treatment and washout, spindle recovery; type: cell-based, human; settings: 5 minutes treatment, washout, imaged after 40 minutes
Source text: as §3, §4

[4] = tested on: HeLa cells in comparison to HFF1 cells; experiment: Percentage of cells in mitosis, 8 hours; type: cell-based; settings: nanomolar range
Procedure: as §1, §2

[5] = tested on: HCT116 cells; experiment: Mitotic arrest after one population doubling time; type: cell-based; settings: HCT116, most responsive
Source text: as §3, §4

[6] = tested on: A549 cells; experiment: IC50 of derivatives (Table 5); type: cell-based, human; settings: Homo sapiens; Table 5; cell line only named in b213 (A549)
[7] = tested on: HeLa, A549 and HCT116 cancer cells compared to HFF-1 non-cancer cells; experiment: Selective toxicity, high-throughput automated analysis; type: cell-based; settings: A549, HCT116 vs HFF-1
Procedure: as §1, §2

[8] = tested on: MCF7, BT549, A549, HCT116, HeLa cells; experiment: Viability in cancer vs non-cancer cell lines, summary of Table 3; type: cell-based, human
Procedure: To date, 30 variants with different structural modifications have been made. […] In particular, it is shown that C75 causes death in multiple cancer cells with IC50 values in the 100-400 nM range, including breast cancers (MCF7, BT549), lung cancer (A549), colorectal cancer (HCT116) in addition to HeLa cells (cervical cancer).

COc1ccc(S(=O)(=O)N2Cc3ccccc3-c3sc(Br)cc32)cc1 [Compound C75]
mitotic spindle morphology [1]: not affected | change in proportion of G2/M cells [2]: increase in the proportion of G2/M cells | spindles reformed after drug removal [3]: tri- or multipolar spindles formed | mitotic arrest in HeLa vs HFF1 [4]: selectively causes mitotic arrest | concentration at which mitotic cells increase [5]: 100 nM | IC50 [6]: 431 nM | toxicity in cancer cells compared to HFF-1 non-cancer cells [7]: selectively cause toxicity | efficacy (effect on viability) in cancer cells vs. non-cancer cells [8]: higher efficacy | IC50 ([8]; Homo sapiens, MCF7, BT549, A549, HCT116, HeLa, read-out: IC50 values in multiple cancer cells): 100 to 400 nM
